Laboratory results: patent publication US10221177B2 (HYDRA BIOSCIENCES, INC., priority 2014, dated 2019)

Target: human TRPA1 (Homo sapiens (Human), UniProt O75762)
Assay: In vitro inhibition of human TRPA1, whole cell patch configuration
Assay type: cell-based
Conditions: current activation 10 μM AITC, tested concentrations 320 pM to 3.2 μM, read-out: hTRPA1 IC50
Procedure: All currents were recorded in whole-cell configuration using EPC-9 and EPC-10 amplifiers and Patchmaster software (HEKA) or similar. […] The standard bath solution contained 150 mM NaCl, 10 mM HEPES, 10 mM glucose, 4.5 mM KCl, 1 mM EGTA, 3 mM MgCl2, with pH adjusted to 7.4 with NaOH. In some instances, 2 mM CaCl2 was added in place of EGTA and the concentration of MgCl2 was reduced to 1 mM.
Data were collected either by continuous recordings at −60 mV or by applying voltage ramps from a holding potential of −40 mV every 4 s. Continuous recordings were collected at 400 Hz and digitally filtered off-line at 10 Hz for presentation. Voltage ramps were applied from −100 mV or −80 mV to +100 mV or +80 mV over the course of 400 ms, and data were collected at 10 kHz and filtered at 2.9 kHz. Inward and outward currents were analyzed from the ramps at −80 and 80 mV, respectively. Liquid junction potential correction was not used.
Solutions were switched using a gravity-fed continuous focal perfusion system. To achieve rapid temperature changes, two temperature control, and perfusion systems were employed simultaneously. […] Temperatures were confirmed using a thermistor (Warner Instruments, TA-29), with temperatures at the recorded cell estimated to be within +/−2° C. of those reported.
The antagonist effects of compounds of Formula (I) against human TRPA1 (“hTRPA1”) in a whole cell patch configuration were evaluated using the in vitro assay described above.

Sequence of human TRPA1 (O75762 whole entry): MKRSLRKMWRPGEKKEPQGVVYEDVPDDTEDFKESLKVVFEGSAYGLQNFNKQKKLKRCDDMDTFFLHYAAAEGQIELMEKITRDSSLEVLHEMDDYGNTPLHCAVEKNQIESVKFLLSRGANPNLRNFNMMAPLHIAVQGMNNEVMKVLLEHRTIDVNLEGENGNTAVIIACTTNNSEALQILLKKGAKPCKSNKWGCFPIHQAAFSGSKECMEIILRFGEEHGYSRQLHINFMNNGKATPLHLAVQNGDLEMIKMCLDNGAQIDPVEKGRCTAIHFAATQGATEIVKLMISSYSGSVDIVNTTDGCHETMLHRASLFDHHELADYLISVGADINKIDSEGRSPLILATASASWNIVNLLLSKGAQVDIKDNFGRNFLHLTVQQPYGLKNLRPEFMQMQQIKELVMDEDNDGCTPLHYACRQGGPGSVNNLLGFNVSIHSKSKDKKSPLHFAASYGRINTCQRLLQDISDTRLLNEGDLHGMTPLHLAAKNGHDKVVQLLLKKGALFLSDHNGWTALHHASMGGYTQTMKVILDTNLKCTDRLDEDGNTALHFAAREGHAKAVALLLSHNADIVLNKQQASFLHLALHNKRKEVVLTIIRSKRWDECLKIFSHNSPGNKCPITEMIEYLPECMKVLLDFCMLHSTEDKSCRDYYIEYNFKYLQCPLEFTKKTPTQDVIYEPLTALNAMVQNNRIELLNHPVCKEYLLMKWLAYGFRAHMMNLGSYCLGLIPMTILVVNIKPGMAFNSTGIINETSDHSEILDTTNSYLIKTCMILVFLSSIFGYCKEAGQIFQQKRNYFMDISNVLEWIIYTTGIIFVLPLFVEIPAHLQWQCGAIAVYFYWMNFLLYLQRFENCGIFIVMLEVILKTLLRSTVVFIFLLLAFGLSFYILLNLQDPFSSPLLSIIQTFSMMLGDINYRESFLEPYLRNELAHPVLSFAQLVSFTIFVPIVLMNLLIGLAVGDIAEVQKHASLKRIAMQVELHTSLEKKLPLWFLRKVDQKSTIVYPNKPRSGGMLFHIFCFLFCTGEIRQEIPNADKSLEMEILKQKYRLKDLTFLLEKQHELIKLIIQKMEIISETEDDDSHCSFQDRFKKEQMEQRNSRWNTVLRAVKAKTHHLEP

SMILES | IC50 [nM]
C[C@@H](C(=O)Nc1csc(-c2cnc(N3CC4C(C3)C4(F)F)nc2)n1)n1cnc2c1c(=O)n(CC#N)c(=O)n2C (stereo partly drawn) [Compound 58, (2S)-2-(1-(cyanomethyl)-3-methyl-2,6-dioxo-2,3-dihydro-1H-purin-7(6H)-yl)-N-(2-(2-(6,6-difluoro-3-azabicyclo[3.1.0]hexan-3-yl)pyrimidin-5-yl)thiazol-4-yl)propanamide] | 2
COCC(=O)Cn1c(=O)c2c(ncn2[C@@H](C)C(=O)Nc2cccc(-c3cnc(C(F)(F)F)nc3)n2)n(C)c1=O [Compound 59, (S)-2-(1-(3-methoxy-2-oxopropyl)-3-methyl-2,6-dioxo-2,3-dihydro-1H-purin-7(6H)-yl)-N-(6-(2-(trifluoromethyl)pyrimidin-5-yl)pyridin-2-yl)propanamide] | 45
C[C@@H](C(=O)Nc1cncc(-c2cnc(N3CC4C(C3)C4(F)F)nc2)n1)n1cnc2c1c(=O)n(CC#N)c(=O)n2C (stereo partly drawn) [Compound 60, (2S)-2-(1-(cyanomethyl)-3-methyl-2,6-dioxo-2,3-dihydro-1H-purin-7(6H)-yl)-N-(6-(2-(6,6-difluoro-3-azabicyclo[3.1.0]hexan-3-yl)pyrimidin-5-yl)pyrazin-2-yl)propanamide] | 7
CCC(=O)Cn1c(=O)c2c(ncn2[C@@H](C)C(=O)Nc2ccnc(-c3cnc(N4CC5C(C4)C5(F)F)nc3)n2)n(C)c1=O (stereo partly drawn) [Compound 62, (2S)—N-(2′-(6,6-difluoro-3-azabicyclo[3.1.0]hexan-3-yl)-[2,5′-bipyrimidin]-4-yl)-2-(3-methyl-2,6-dioxo-1-(2-oxobutyl)-2,3-dihydro-1H-purin-7(6H)-yl)propanamide] | 5
CC(=O)Cn1c(=O)c2c(ncn2[C@@H](C)C(=O)Nc2csc(-c3ccc(N4CC5CC5C4)nc3)n2)n(C)c1=O (stereo partly drawn) [Compound 63, (2S)—N-(2-(6-(3-azabicyclo[3.1.0]hexan-3-yl)pyridin-3-yl)thiazol-4-yl)-2-(3-methyl-2,6-dioxo-1-(2-oxopropyl)-2,3-dihydro-1H-purin-7(6H)-yl)propanamide] | 2
C[C@@H](C(=O)Nc1csc(-c2ccc(N3CC4CC4C3)nc2)n1)n1cnc2c1c(=O)n(CC#N)c(=O)n2C (stereo partly drawn) [Compound 64, (2S)—N-(2-(6-(3-azabicyclo[3.1.0]hexan-3-yl)pyridin-3-yl)thiazol-4-yl)-2-(1-(cyanomethyl)-3-methyl-2,6-dioxo-2,3-dihydro-1H-purin-7(6H)-yl)propanamide] | 2
CC(=O)Cn1c(=O)c2c(ncn2[C@@H](C)C(=O)Nc2cccc(-c3ccc(N4CC5C(C4)C5(F)F)nc3)n2)n(C)c1=O (stereo partly drawn) [Compound 65] | 8
C[C@@H](C(=O)Nc1csc(-c2ccc(N3CC4CC4C3)nc2)n1)n1cnc2c1c(=O)n(CC#N)c(=O)n2C (stereo partly drawn) [Compound 66, (2S)—N-(2-(6-(3-azabicyclo[3.1.0]hexan-3-yl)pyridin-3-yl)thiazol-4-yl)-2-(1-(cyanomethyl)-3-methyl-2,6-dioxo-2,3-dihydro-1H-purin-7(6H)-yl)propanamide] | 2
C[C@@H](C(=O)Nc1ccnc(-c2cnc(N3CC4C(C3)C4(F)F)nc2)n1)n1cnc2c1c(=O)n(CC#N)c(=O)n2C (stereo partly drawn) [Compound 67, (2S)-2-(1-(cyanomethyl)-3-methyl-2,6-dioxo-2,3-dihydro-1H-purin-7(6H)-yl)-N-(2′-(6,6-difluoro-3-azabicyclo[3.1.0]hexan-3-yl)-[2,5′-bipyrimidin]-4-yl)propanamide] | 7
CC(=O)Cn1c(=O)c2c(ncn2[C@@H](C)C(=O)Nc2ccnc(-c3ccc(N4CC5C(C4)C5(F)F)nc3)n2)n(C)c1=O (stereo partly drawn) [Compound 69, (2S)—N-(2-(6-(6,6-difluoro-3-azabicyclo[3.1.0]hexan-3-yl)pyridin-3-yl)pyrimidin-4-yl)-2-(3-methyl-2,6-dioxo-1-(2-oxopropyl)-2,3-dihydro-1H-purin-7(6H)-yl)propanamide] | 7
CNC(=O)Cn1c(=O)c2c(ncn2[C@@H](C)C(=O)Nc2csc(-c3cnc(N4CC5CC5C4)nc3)n2)n(C)c1=O (stereo partly drawn) [Compound 71, (2S)—N-(2-(2-(3-azabicyclo[3.1.0]hexan-3-yl)pyrimidin-5-yl)thiazol-4-yl)-2-(3-methyl-1-(2-(methylamino)-2-oxoethyl)-2,6-dioxo-2,3-dihydro-1H-purin-7(6H)-yl)propanamide] | 44
CCC(=O)Cn1c(=O)c2c(ncn2[C@@H](C)C(=O)Nc2csc(-c3ccc(N4CC5C(C4)C5(F)F)nc3)n2)n(C)c1=O (stereo partly drawn) [Compound 80, (2S)—N-(2-(6-(6,6-difluoro-3-azabicyclo[3.1.0]hexan-3-yl)pyridin-3-yl)thiazol-4-yl)-2-(3-methyl-2,6-dioxo-1-(2-oxobutyl)-2,3-dihydro-1H-purin-7(6H)-yl)propanamide] | 1
CC(=O)Cn1c(=O)c2c(ncn2[C@@H](C)C(=O)Nc2csc(-c3cnc(C(F)(F)F)c(C)c3)n2)n(C)c1=O [Compound 82, (S)-2-(3-methyl-2,6-dioxo-1-(2-oxopropyl)-2,3-dihydro-1H-purin-7(6H)-yl)-N-(2-(5-methyl-6-(trifluoromethyl)pyridin-3-yl)thiazol-4-yl)propanamide] | 5
CCC(=O)Cn1c(=O)c2c(ncn2[C@@H](C)C(=O)Nc2csc(-c3cnc(C(F)(F)F)c(C)c3)n2)n(C)c1=O [Compound 83, (S)-2-(3-methyl-2,6-dioxo-1-(2-oxobutyl)-2,3-dihydro-1H-purin-7(6H)-yl)-N-(2-(5-methyl-6-(trifluoromethyl)pyridin-3-yl)thiazol-4-yl)propanamide] | 2
CCC(=O)Cn1c(=O)c2c(ncn2[C@@H](C)C(=O)Nc2cncc(-c3ccc(N4CC5C(C4)C5(F)F)nc3)n2)n(C)c1=O (stereo partly drawn) [Compound 84, (2S)—N-(6-(6-(6,6-difluoro-3-azabicyclo[3.1.0]hexan-3-yl)pyridin-3-yl)pyrazin-2-yl)-2-(3-methyl-2,6-dioxo-1-(2-oxobutyl)-2,3-dihydro-1H-purin-7(6H)-yl)propanamide] | 4

The remaining compounds from weak to strong by IC50, led by results:

IC50 [nM] | SMILES
258 | CNC(=O)Cn1c(=O)c2c(ncn2[C@@H](C)C(=O)Nc2cccc(-c3cnc(C(F)(F)F)nc3)n2)n(C)c1=O [Compound 87, (S)-2-(3-methyl-1-(2-(methylamino)-2-oxoethyl)-2,6-dioxo-2,3-dihydro-1H-purin-7(6H)-yl)-N-(6-(2-(trifluoromethyl)pyrimidin-5-yl)pyridin-2-yl)propanamide]
86 | Cc1cc(Cn2c(=O)c3c(ncn3[C@@H](C)C(=O)Nc3cccc(-c4noc(C(F)(F)F)n4)n3)n(C)c2=O)no1 [Compound 78]
10 | CC(=O)Cn1c(=O)c2c(ncn2[C@@H](C)C(=O)Nc2cncc(-c3ccc(N4CC5C(C4)C5(F)F)nc3)n2)n(C)c1=O (stereo partly drawn) [Compound 76, (2S)—N-(6-(6-(6,6-difluoro-3-azabicyclo[3.1.0]hexan-3-yl)pyridin-3-yl)pyrazin-2-yl)-2-(3-methyl-2,6-dioxo-1-(2-oxopropyl)-2,3-dihydro-1H-purin-7(6H)-yl)propanamide]
10 | CC(=O)Cn1c(=O)c2c(ncn2[C@@H](C)C(=O)Nc2csc(-c3cnc(C)c(Cl)c3)n2)n(C)c1=O [Compound 81, (S)—N-(2-(5-chloro-6-methylpyridin-3-yl)thiazol-4-yl)-2-(3-methyl-2,6-dioxo-1-(2-oxopropyl)-2,3-dihydro-1H-purin-7(6H)-yl)propanamide]
5 | CCC(=O)Cn1c(=O)c2c(ncn2[C@@H](C)C(=O)Nc2cccc(-c3ccc(N4CC5C(C4)C5(F)F)nc3)n2)n(C)c1=O (stereo partly drawn) [Compound 68, (2S)—N-(6′-(6,6-difluoro-3-azabicyclo[3.1.0]hexan-3-yl)-[2,3′-bipyridin]-6-yl)-2-(3-methyl-2,6-dioxo-1-(2-oxobutyl)-2,3-dihydro-1H-purin-7(6H)-yl)propanamide]
5 | CCC(=O)Cn1c(=O)c2c(ncn2[C@@H](C)C(=O)Nc2ccnc(-c3ccc(N4CC5C(C4)C5(F)F)nc3)n2)n(C)c1=O (stereo partly drawn) [Compound 70, (2S)—N-(2-(6-(6,6-difluoro-3-azabicyclo[3.1.0]hexan-3-yl)pyridin-3-yl)pyrimidin-4-yl)-2-(3-methyl-2,6-dioxo-1-(2-oxobutyl)-2,3-dihydro-1H-purin-7(6H)-yl)propanamide]
3 | CCC(=O)Cn1c(=O)c2c(ncn2[C@@H](C)C(=O)Nc2cncc(-c3cnc(N4CC5C(C4)C5(F)F)nc3)n2)n(C)c1=O (stereo partly drawn) [Compound 75, (2S)—N-(6-(2-(6,6-difluoro-3-azabicyclo[3.1.0]hexan-3-yl)pyrimidin-5-yl)pyrazin-2-yl)-2-(3-methyl-2,6-dioxo-1-(2-oxobutyl)-2,3-dihydro-1H-purin-7(6H)-yl)propanamide]
3 | Cc1cc(Cn2c(=O)c3c(ncn3[C@@H](C)C(=O)Nc3ccnc(-c4cnc(C(F)(F)F)c(C)c4)n3)n(C)c2=O)no1 [Compound 85, (S)-2-(3-methyl-1-((5-methylisoxazol-3-yl)methyl)-2,6-dioxo-2,3-dihydro-1H-purin-7(6H)-yl)-N-(2-(5-methyl-6-(trifluoromethyl)pyridin-3-yl)pyrimidin-4-yl)propanamide]
2 | C[C@@H](C(=O)Nc1cncc(-c2ccc(N3CC4C(C3)C4(F)F)nc2)n1)n1cnc2c1c(=O)n(CC#N)c(=O)n2C (stereo partly drawn) [Compound 77]
